Source: patent publication US5674894A, “Amidine derivatives useful as platelet aggregation inhibitors and vasodilators” (G.D. Searle & Co., priority 1995, dated 1997)

Columns and labels:
[1] = test system: ADP-Induced Platelet Aggregation in Human PRP; test: In-Vitro Human Platelet Aggregation in PRP (ADP-induced); format: cell-based; conditions: 1 minute preincubation at 37° C., tested in duplicate, read-out: IC50, inhibition of ADP-induced platelet aggregation in human PRP
Protocol: (§1) The compounds of the above invention were tested in the in vitro human platelet aggregation assay in platelet rich plasma (PRP) and in the competitive solid phase binding assay against purified human fibrinogen and vitronectin receptors.
In-Vitro Human Platelet Aggregation in PRP:
Healthy male or female donors who have not taken any antiplatelet drugs for at least two weeks were fasted for 8 hours prior to drawing blood; then 30 mL whole blood was collected using a butterfly needle and 30 cc plastic syringe with 3 mL of 0.129M buffered sodium citrate (3.8%). The syringe was rotated carefully as blood was drawn to mix the citrate. Platelet-richplasma (PRP) was prepared by centrifugation at 250× g for 12 minutes at room temperature, allowing the centrifuge to coast to a stop without braking. The PRP was removed from the blood with a plastic pipette and placed in a plastic capped, 50 mL Corning conical sterile centrifuge tube which was held at room temperature. Platelet-poor plasma (PPP) was prepared by centrifuging the remaining blood at 2000× g for 15 minutes at room temperature allowing the centrifuge to coast to a stop without braking. The PRP was adjusted with PPP to a count of 2-3×10^8 platelets per mL. 450 μL of the PRP preparation and 50 μL of the compound to be tested or saline were preincubated for 1 minute at 37° C. in a Payton aggregometer (Payton Scientific, Inc., Buffalo, N.Y.). 50 μL of adenosine 5'-diphosphate (ADP) ([…]) was added to the cuvettes and the aggregation was monitored for 1 minute. All compounds are tested in duplicate. Results are calculated as follows: Percent of control=[(maximal OD minus initial OD of compound) divided by (maximal OD minus initial OD of control saline)]×100. The % inhibition=100-(percent of control). The compounds tested and their activity results at median inhibitory concentration (IC50) were as recorded in Table 1.

[2] = biological target: purified human fibrinogen receptor (IIb^β 3) (Homo sapiens, UniProt P05106+P08514); test: Solid phase receptor assay, competitive binding to purified human fibrinogen receptor; conditions: biotinylated ligand 1 nM final, two hours, room temperature
Protocol: as §1
(§2) Solid Phase Receptor Assays
(§3) These assays were essentially the same as previously reported. The purified human vitronectin receptor(αv β3) or purified human fibrinogen receptor(IIb^β 3) were diluted from stock solutions to 1.0 μg/mL in Tris-buffered saline containing 1.0 mM Ca^++, Mg^++, and Mn^++, pH 7.4 (TBS^+++). The diluted receptor was immediately transferred to Linbro microtiter plates at 100 μL/well (100 ng receptor/well). The plates were sealed and incubated overnight at 4° C. to allow the receptor to bind to the wells. All remaining steps were at room temperature. The assay plates are emptied and 200 μL of 1% radioimmunoassay grade bovine serum albumin in TBS^+++ (TBS^+++ /BSA) were added to block exposed plastic surfaces. Following a 2 hour incubation, the assay plates were washed with TBS^+++ using a 96 well plate washer. Logarithmic serial dilution of the test compound and controls were made starting at a stock concentration of 2 mM and using 2 nM biotinylated vitronectin in TBS^+++ /BSA as the diluent. This premixing of labeled ligand with test (or control) ligand, and subsequent transfer of 50 μL aliquots to the assay plate was carried out with a CETUS Propette robot; the final concentration of the labeled ligand was 1 nM and the highest concentration of test compound was 1.0×10^-4M. The competition occurred for two hours after which all wells were washed with a plate washer as before. Affinity purified horseradish peroxidase labeled goat anti-biotin antibody was diluted 1:3000 in TBS^+++ /BSA and 125 μL were added to each well. After 30 minutes, the plates were washed and incubated with o-phenylendiamine/H2 O2 substrate in 100 mM/L Citrate buffer, pH 5.0. The plate was read with a microtiter plate reader at a wavelength of 450 nm and when the maximum-binding control wells reached an absorbance of about 1.0, the final A450 were recorded for analysis. The data were analyzed using a macro written for use with the EXCEL™ spreadsheet program. The mean, standard deviation, and % coefficient variation were determined for duplicate concentrations. The mean A450 values were normalized to the mean of four maximum-binding controls (no competitor added). The normalized values were subjected to a four parameter curve fit algorithm, plotted on a semi-log scale, and the computed IC50 and corresponding correlation coefficient was reported. GRGDSP, a peptide fragment of fibrinogen, was included on each plate as a positive control.

[3] = biological target: purified human vitronectin receptor (αv β3) (Homo sapiens, UniProt P05106+P06756); test: Solid phase receptor assay, competitive binding to purified human vitronectin receptor; conditions: biotinylated vitronectin 1 nM final, two hours, highest concentration 1.0×10^-4M, read-out: IC50 Vitronetin receptor
Protocol: as §1, §2, §3

N=C(N)c1ccc(NC(=O)CCC(=O)NC(CC(=O)O)C(=O)O[C@H]2CO[C@H]3[C@@H]2OC[C@H]3O)cc1 (stereo partly drawn) [Example 8] gave an IC50 [1] of 300 nM, an IC50 [2] of 0.71 nM and an IC50 [3] greater than 100000 nM.

For N=C(N)c1ccc(CCCCC(=O)NC(CC(=O)O)C(=O)OC2COC3C(O)COC23)cc1 (stereo not drawn) [Example 5], the IC50 [1] was 2000 nM, the IC50 [2] was 1.28 nM and the IC50 [3] was greater than 100000 nM.

Compound N=C(N)c1ccc(NC(=O)CCC(=O)NC(CC(=O)O)C(=O)O[C@H]2CO[C@H]3[C@@H]2OC[C@H]3O[N+](=O)[O-])cc1 (stereo partly drawn) [Example 6] has an IC50 [1] of 400 nM, an IC50 [2] of 0.25 nM and an IC50 [3] greater than 100000 nM.

Compound N=C(N)c1ccc(CCCCC(=O)NC(CC(=O)O)C(=O)O[C@H]2CO[C@H]3[C@@H]2OC[C@H]3O[N+](=O)[O-])cc1 (stereo partly drawn) [Example 3] has an IC50 [1] of 2000 nM, an IC50 [2] of 3.11 nM and an IC50 [3] greater than 100000 nM.
